What was measured:
[1] = Average deviation between target (predicted) and measured tacrolimus serum level for dosing Functions 0, 1, 2; design: species or system human; conditions: unit assumed
Text: Additionally, data from the clinical trial was utilized to determine the average deviations between a target (i.e., predicted) serum level and an actual (i.e., measured) serum level for the two PPM patients.
Where Function 0 is ST(DT, t)=x0(t)+x1(t)DT+x11(t)DT^2; Function 1 is [(D/S)T](N+1) day=[(D/S)T]N day; and Function 2 is [(D/S)T]next day=x0(t)+x1(t)[AST×(D/S)T]today+z11(t)[AST×(D/S)T] today. […] By incorporating the AST level the current system and methods can provide further improvement in achieving a target serum levels

[2] = Same clinical trial: clinical outcomes (length of stay, AST normalization, neurotoxicity); assay type: in vivo, human
Text: (§1) The inclusion criteria for the study was (1) the subject was undergoing primary or secondary liver or simultaneous liver and kidney transplantation; (2) the subject or a surrogate was able to provide informed consent; and (3) the subject was at least 18 years of age. […] Sixty two (62) subjects were accepted into the trial.
(§2) Each of the 62 selected subjects were randomized, with half (31) assigned to a control group and the other half (31) assigned to a phenotypic personalized medicine (PPM) group. The subjects were blinded to group assignments; the clinical team was not blinded. The patients in the PPM group were given tacrolimus dosages based on the present dosage calculation system and patients of the Control group were given tacrolimus dosages based on standard-of-care (SOC) dosing. The SOC dosing utilized a combination of dose titration and a subjective determination by a clinician. The subjective determination relied on patient weight, age, muscle mass, race/ethnicity, frailty, diet, concomitant medication, and other factors to select an initial dose for the next twenty-four hours. The patient's response to this dose is then taken into consideration for determining the next day's dose recommendation. This determination was repeated each day until the patient was able to be released from the hospital.
Tacrolimus dosage was discontinued for one patient in each of the PPM group and the Control group. […] As this would affect dosing accuracy and the study outcomes, this patient was excluded from analysis. One patient assigned to the Control group refused multiple tacrolimus doses in the post-operative period and was therefore excluded from analysis. The remaining 56 (29 Control group and 27 PPM group) patients completed the study and were discharged from the hospital after transplantation.
Following liver transplantation, all study patients were started on standard-of-care medication regimen: a three-drug combination of tacrolimus, a corticosteroid, and mycophenolate. Blood tacrolimus trough levels were measured daily in the morning until patient discharge. […] After the third day, the Control group continued with the standard-of-care procedure while the PPM group subjects were given dosages calculated by the PPM prediction model, shown in the Function below.
The primary outcome measure was percent days with large (>2 ng/ml) deviations from target range. Secondary outcomes included percent days outside-of-target range, ratio of area-under-the-curve outside-of-target-range to total days, graft rejection, graft failure, death, infections, length of stay, nephrotoxicity episodes, or neurotoxicity episodes. Comparisons between the two groups were performed using either the two-tailed Welch's t-test or Student's t-test. For nonparametric (non-normal) distributions, a two-tailed Levene's test was used to compare variances and a two-tailed Wilcoxon Rank Sum test was used to compare medians. Logistic regression was used to dichotomize the length of stay after transplant and the percent days out of target range for comparison. Statistical analyses were performed on JMP Pro 16.1.0.

[3] = human, in vivo
Text: as §1
as §2, with “The patients in the PPM group were given tacrolimus dosages based on the present dosage calculation system and patients of the Control group were given tacrolimus dosages based on standard-of-care (SOC) dosing.” left out
After the third day, the Control group continued with the standard-of-care procedure while the PPM group subjects were given dosages calculated by the PPM prediction model, shown in the Function below. […]

With C=CC[C@@H]1/C=C(\C)C[C@H](C)C[C@H](OC)[C@H]2O[C@@](O)(C(=O)C(=O)N3CCCC[C@H]3C(=O)O[C@H](/C(C)=C/[C@@H]3CC[C@@H](O)[C@H](OC)C3)[C@H](C)[C@@H](O)CC1=O)[C@H](C)C[C@@H]2OC [tacrolimus] the Average Deviation from Target Serum Level ([1]; Function 0, first row of Table 5 (one of the two PPM patients)) was 2.9 ng/mL, the Average Deviation from Target Serum Level ([1]; Function 0, second row of Table 5 (one of the two PPM patients)) was 1.6 ng/mL and the Average Deviation from Target Serum Level ([1]; Function 1, first row of Table 5) was 2 ng/mL. The Average Deviation from Target Serum Level ([1]; Function 1, second row of Table 5) was 1.2 ng/mL, the Average Deviation from Target Serum Level ([1]; Function 2, first row of Table 5) was 1.4 ng/mL and the Average Deviation from Target Serum Level ([1]; Function 2, second row of Table 5) was 0.6 ng/mL. For the same molecule, the “days after liver transplant until release from hospital” value ([2]; Control Patient, conventional titration) was 19 days, the average hospital stay ([2]; Control group) was 15.87 days and the “day by which 90% of the patients were discharged” value ([2]; Control group) was 25 days. For the same molecule, the “share of group with post-transplant length of stay two weeks or more” value ([2]; Control group) was 65.5%, the “median days to normalize AST levels (DAST)” value ([2]; Control group (Q1-Q3 6.25-11.75)) was 8.5 days and the “median length-of-stay (LOS)” value ([2]; Control group (Q1-Q3 10.5-20.5)) was 15 days. The average hospital stay ([2]; Control group, two patients with the longest stay removed) was 14.36 days, the “days after liver transplant until release from hospital” value ([2]; First PPM Patient) was 12 days and the average hospital stay ([2]; PPM group) was 10.42 days. For the same molecule, the “day by which 90% of the patients were discharged” value ([2]; PPM group) was 15 days, the “share of group with post-transplant length of stay two weeks or more” value ([2]; PPM group (5/27)) was 18.5% and the “median days to normalize AST levels (DAST)” value ([2]; PPM group (Q1-Q3 4-8)) was 6 days. For the same molecule, the “median length-of-stay (LOS)” value ([2]; PPM group (Q1-Q3 8-12)) was 10 days, the “reduction in the post-transplant length of stay” value ([2]; PPM group versus Control group) was “more than 30%” and the average hospital stay ([2]; PPM group, two patients with the longest stay removed) was 8 days. The “day of release from hospital” value ([2]; Second PPM Patient) was 11 days, the “neurotoxicity leading to discontinuation of tacrolimus” value ([2]; one patient in each of the PPM group and the Control group, evidenced by brain imaging) was “neurotoxicity within the first week after transplant that was deemed not dose related” and the “decrease in the percentage of days with a large deviation from the target trough drug level” value [3] was 37%. The “reduction of the mean AUC outside of target range” value [3] was 30%.

Reference: patent US20250273312A1, “SYSTEM AND METHOD FOR IMMUNOSUPPRESSANT DOSAGE” (THE REGENTS OF THE UNIVERSITY OF CALIFORNIA, priority 2021, published 2025)
